# Data from PubChem BioAssay (NCI).
# Where “and” joins values, the source holds several entries; their conditions need not be identical. Equal values may be shown once.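 Briefly, cells in 96-well plates were exposed to five compound concentrations for 48 h, and endpoints were estimated by linear interpolation. At the GI50, growth is halved. TGI denotes the concentration required for complete inhibition of growth.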
# Assays:
# Test in all cases: NCI anticancer screen, dose series, 48 h
# MDA-MB-435 = system: MDA-MB-435
# DU-145 prostate = system: DU-145 prostate
# TK-10 renal = system: TK-10 renal
# SK-MEL-5 melanoma = system: SK-MEL-5 melanoma
# MDA-MB-231 breast = system: MDA-MB-231 breast
# SNB-19 CNS = system: SNB-19 CNS
# SW-620 colon = system: SW-620 colon
# NCI-H522 lung = system: NCI-H522 lung
# CAKI-1 renal = system: CAKI-1 renal
# SNB-75 CNS = system: SNB-75 CNS
# COLO 205 colon = system: COLO 205 colon
# DMS 114 small cell lung = system: DMS 114 small cell lung
# A498 renal = system: A498 renal
# SF-539 CNS = system: SF-539 CNS
# ACHN renal = system: ACHN renal
# K-562 leukemia = system: K-562 leukemia
# UACC-257 melanoma = system: UACC-257 melanoma
# HOP-62 NSCLC = system: HOP-62 NSCLC
# NCI-H460 lung = system: NCI-H460 lung
# A549 NSCLC = system: A549 NSCLC
# HS 578T breast = system: HS 578T breast
# RXF 393 renal = system: RXF 393 renal
# U251 CNS = system: U251 CNS
# SF-268 CNS = system: SF-268 CNS
# KM12 colon = system: KM12 colon
# LOX IMVI melanoma = system: LOX IMVI melanoma
# PC-3 prostate = system: PC-3 prostate
# SN12C renal = system: SN12C renal
# XF 498 CNS = system: XF 498 CNS
# HCT-15 colon = system: HCT-15 colon
# M19-MEL melanoma = system: M19-MEL melanoma
# HL-60(TB) leukemia = system: HL-60(TB) leukemia
# MOLT-4 leukemia = system: MOLT-4 leukemia
# OVCAR-3 ovarian = system: OVCAR-3 ovarian
# HCT-116 colon = system: HCT-116 colon
# HCC-2998 colon = system: HCC-2998 colon
# DLD-1 colon = system: DLD-1 colon
# LXFL 529 NSCLC = system: LXFL 529 NSCLC
# RPMI-8226 leukemia = system: RPMI-8226 leukemia
# UACC-62 melanoma = system: UACC-62 melanoma
# 786-0 renal = system: 786-0 renal
# SK-MEL-2 melanoma = system: SK-MEL-2 melanoma
# BT-549 breast = system: BT-549 breast
# DMS 273 small cell lung = system: DMS 273 small cell lung
# CCRF-CEM leukemia = system: CCRF-CEM leukemia
# HOP-92 NSCLC = system: HOP-92 NSCLC
# SF-295 CNS = system: SF-295 CNS
# NCI-H23 lung = system: NCI-H23 lung
# SK-MEL-28 melanoma = system: SK-MEL-28 melanoma
# MALME-3M melanoma = system: MALME-3M melanoma
# UO-31 renal = system: UO-31 renal
# MDA-N = system: MDA-N
# IGROV1 ovarian = system: IGROV1 ovarian
# NCI-H226 lung = system: NCI-H226 lung
# KM20L2 colon = system: KM20L2 colon
# SNB-78 CNS = system: SNB-78 CNS
# OVCAR-8 ovarian = system: OVCAR-8 ovarian
# EKVX NSCLC = system: EKVX NSCLC
# M14 melanoma = system: M14 melanoma
# RXF-631 renal = system: RXF-631 renal
# NCI/ADR-RES ovarian = system: NCI/ADR-RES ovarian
# SK-OV-3 ovarian = system: SK-OV-3 ovarian
# OVCAR-5 ovarian = system: OVCAR-5 ovarian
# OVCAR-4 ovarian = system: OVCAR-4 ovarian
# HT29 colon = system: HT29 colon
# HOP-18 NSCLC = system: HOP-18 NSCLC
# SR leukemia = system: SR leukemia
smiles,measurement,setting,value
CC(C)(Br)C(=O)C(Br)Br,TGI,MDA-MB-435,9.98 µM
same,TGI,DU-145 prostate,70.6 µM
same,GI50,TK-10 renal,4.95 µM
same,TGI,TK-10 renal,23.5 µM and 9.15 µM
same,GI50,SK-MEL-5 melanoma,5.55 µM
same,TGI,SK-MEL-5 melanoma,25 µM and 9.92 µM
same,TGI,MDA-MB-231 breast,10 µM
same,TGI,SNB-19 CNS,33.9 µM and 59.4 µM
same,GI50,SW-620 colon,5.12 µM
same,TGI,SW-620 colon,3.59 µM and 10.4 µM
same,GI50,NCI-H522 lung,1.37 µM
same,TGI,NCI-H522 lung,3.18 µM and 5.16 µM
same,GI50,CAKI-1 renal,5.21 µM
same,TGI,CAKI-1 renal,3.81 µM and 9.43 µM
same,GI50,SNB-75 CNS,5.04 µM
same,TGI,SNB-75 CNS,26.7 µM and 9.38 µM
same,GI50,COLO 205 colon,4.06 µM
same,TGI,COLO 205 colon,7.04 µM and 8.3 µM
same,TGI,DMS 114 small cell lung,18.1 µM
same,TGI,A498 renal,> 54.4 µM
same,GI50,SF-539 CNS,5.42 µM
same,TGI,SF-539 CNS,> 48.2 µM and 9.97 µM
same,GI50,ACHN renal,5.34 µM
same,TGI,ACHN renal,22.5 µM and 9.58 µM
same,GI50,K-562 leukemia,2.28 µM
same,GI50,UACC-257 melanoma,5.21 µM
same,TGI,UACC-257 melanoma,22.4 µM and 9.43 µM
same,GI50,HOP-62 NSCLC,59.7 µM
same,TGI,HOP-62 NSCLC,> 56.5 µM and 104 µM
same,GI50,NCI-H460 lung,5.75 µM
same,TGI,NCI-H460 lung,34.4 µM and 11.4 µM
same,GI50,A549 NSCLC,11 µM
same,TGI,A549 NSCLC,37.3 µM and 41 µM
same,TGI,HS 578T breast,19.9 µM
same,GI50,RXF 393 renal,5.31 µM
same,TGI,RXF 393 renal,10 µM and 9.81 µM
same,GI50,U251 CNS,9.65 µM
same,TGI,U251 CNS,> 44.7 µM and 33.3 µM
same,GI50,SF-268 CNS,7.42 µM
same,TGI,SF-268 CNS,27.1 µM and 26 µM
same,GI50,KM12 colon,5.8 µM
same,TGI,KM12 colon,30.8 µM and 11.7 µM
same,GI50,LOX IMVI melanoma,3.09 µM
same,TGI,LOX IMVI melanoma,16.8 µM and 7.13 µM
same,TGI,PC-3 prostate,11 µM
same,GI50,SN12C renal,6.13 µM
same,TGI,SN12C renal,> 43.1 µM and 11.2 µM
same,TGI,XF 498 CNS,23.8 µM
same,GI50,HCT-15 colon,4.88 µM
same,TGI,HCT-15 colon,> 21.9 µM and 9.57 µM
same,TGI,M19-MEL melanoma,16.1 µM
same,GI50,HL-60(TB) leukemia,6.35 µM
same,TGI,MOLT-4 leukemia,5.1 µM
same,GI50,OVCAR-3 ovarian,5.76 µM
same,TGI,OVCAR-3 ovarian,18.6 µM and 10.6 µM
same,GI50,HCT-116 colon,5.33 µM
same,TGI,HCT-116 colon,9.91 µM and 9.61 µM
same,TGI,HCC-2998 colon,30.8 µM
same,TGI,DLD-1 colon,3.34 µM
same,TGI,LXFL 529 NSCLC,5.87 µM
same,GI50,RPMI-8226 leukemia,2.31 µM and 1.14 µM
same,TGI,RPMI-8226 leukemia,6.29 µM and 6.22 µM
same,GI50,UACC-62 melanoma,5.85 µM
same,TGI,UACC-62 melanoma,22.5 µM and 10.2 µM
same,GI50,786-0 renal,4.85 µM
same,TGI,786-0 renal,26.9 µM and 8.99 µM
same,GI50,SK-MEL-2 melanoma,5.75 µM
same,TGI,SK-MEL-2 melanoma,28.8 µM and 10.8 µM
same,TGI,BT-549 breast,9.13 µM
same,TGI,DMS 273 small cell lung,26.9 µM
same,GI50,CCRF-CEM leukemia,2.72 µM
same,GI50,HOP-92 NSCLC,4 µM
same,TGI,HOP-92 NSCLC,3.16 µM and 8.12 µM
same,GI50,SF-295 CNS,21.1 µM
same,TGI,SF-295 CNS,32.8 µM and 63.3 µM
same,GI50,NCI-H23 lung,5.84 µM
same,TGI,NCI-H23 lung,15.7 µM and 10.5 µM
same,GI50,SK-MEL-28 melanoma,4.93 µM
same,TGI,SK-MEL-28 melanoma,22.1 µM and 9.12 µM
same,GI50,MALME-3M melanoma,4.92 µM
same,TGI,MALME-3M melanoma,3.67 µM and 9.42 µM
same,GI50,UO-31 renal,5.5 µM
same,TGI,UO-31 renal,31.4 µM and 9.8 µM
same,TGI,MDA-N,9.54 µM
same,GI50,IGROV1 ovarian,3.66 µM
same,TGI,IGROV1 ovarian,21.8 µM and 8.09 µM
same,GI50,NCI-H226 lung,7.5 µM
same,TGI,NCI-H226 lung,30.6 µM and 21.3 µM
same,TGI,KM20L2 colon,32.2 µM
same,TGI,SNB-78 CNS,13.9 µM
same,TGI,OVCAR-8 ovarian,14.9 µM and 9.13 µM
same,GI50,EKVX NSCLC,5.23 µM
same,TGI,EKVX NSCLC,26.8 µM and 9.94 µM
same,GI50,M14 melanoma,5.42 µM
same,TGI,M14 melanoma,7.07 µM and 9.69 µM
same,TGI,RXF-631 renal,27.1 µM
same,TGI,NCI/ADR-RES ovarian,12.6 µM
same,GI50,SK-OV-3 ovarian,32.8 µM
same,TGI,SK-OV-3 ovarian,31.3 µM and 69.8 µM
same,GI50,OVCAR-5 ovarian,5.26 µM
same,TGI,OVCAR-5 ovarian,30.6 µM and 9.58 µM
same,TGI,OVCAR-4 ovarian,10.9 µM and 9.91 µM
same,GI50,HT29 colon,6.16 µM
same,TGI,HT29 colon,24 µM and 11.8 µM
COC(=O)[C@@]1(C(C)CC(=O)O)CCCCC1=O (stereo partly specified),TGI,HOP-18 NSCLC,> 100 µM
same,TGI,TK-10 renal,> 100 µM
same,TGI,SK-MEL-5 melanoma,> 100 µM
same,TGI,SNB-19 CNS,> 100 µM
same,TGI,NCI-H522 lung,> 100 µM
same,TGI,CAKI-1 renal,> 100 µM
same,TGI,SNB-75 CNS,> 100 µM
same,TGI,COLO 205 colon,> 100 µM
same,TGI,DMS 114 small cell lung,> 100 µM
same,TGI,A498 renal,> 100 µM
same,TGI,SF-539 CNS,> 100 µM
same,TGI,ACHN renal,> 100 µM
same,TGI,K-562 leukemia,> 100 µM
same,TGI,UACC-257 melanoma,> 100 µM
same,TGI,HOP-62 NSCLC,> 100 µM
same,TGI,NCI-H460 lung,> 100 µM
same,TGI,A549 NSCLC,> 100 µM
same,TGI,RXF 393 renal,> 100 µM
same,TGI,U251 CNS,> 100 µM
same,TGI,SF-268 CNS,> 100 µM
same,TGI,KM12 colon,> 100 µM
same,TGI,LOX IMVI melanoma,> 100 µM
same,TGI,SR leukemia,> 100 µM
same,TGI,SN12C renal,> 100 µM
same,TGI,XF 498 CNS,> 100 µM
same,TGI,HCT-15 colon,> 100 µM
same,TGI,M19-MEL melanoma,> 100 µM
same,TGI,HL-60(TB) leukemia,> 100 µM
same,TGI,MOLT-4 leukemia,> 100 µM
same,TGI,OVCAR-3 ovarian,> 100 µM
same,TGI,HCT-116 colon,> 100 µM
same,TGI,HCC-2998 colon,> 100 µM
same,TGI,DLD-1 colon,> 100 µM
same,TGI,LXFL 529 NSCLC,> 100 µM
same,TGI,RPMI-8226 leukemia,82 µM
same,TGI,UACC-62 melanoma,> 100 µM
same,TGI,786-0 renal,> 100 µM
same,TGI,SK-MEL-2 melanoma,> 100 µM
same,TGI,DMS 273 small cell lung,39.7 µM
same,TGI,CCRF-CEM leukemia,> 100 µM
same,TGI,HOP-92 NSCLC,> 100 µM
same,TGI,SF-295 CNS,> 100 µM
same,TGI,NCI-H23 lung,> 100 µM
same,TGI,SK-MEL-28 melanoma,> 100 µM
same,TGI,MALME-3M melanoma,> 100 µM
same,TGI,UO-31 renal,> 100 µM
same,TGI,IGROV1 ovarian,> 100 µM
same,TGI,NCI-H226 lung,> 100 µM
same,TGI,KM20L2 colon,> 100 µM
same,TGI,SNB-78 CNS,> 100 µM
same,TGI,OVCAR-8 ovarian,> 100 µM
same,TGI,EKVX NSCLC,> 100 µM
same,TGI,M14 melanoma,> 100 µM
same,TGI,SK-OV-3 ovarian,> 100 µM
same,TGI,OVCAR-5 ovarian,> 100 µM
same,TGI,OVCAR-4 ovarian,> 100 µM
same,TGI,HT29 colon,> 100 µM
